Data: US8501775B2, “Anthelmintics for preventing parasitic infections in humans and animals” (SALTIGO GmbH, priority 2000, dated 2013)

Tests used:
[1] = system: Schistosoma mansoni cercariae; experiment: Activity against Schistosoma mansoni cercariae (survival/mobility observed with a stereomagnifier); set-up: key: no effect during the entire test period of 120 minutes; 1: weak effect (the cercariae have a strongly reduced mobility); 2: good effect (the cercariae are only slightly mobile and bent); 3: full effect (the cercariae are completely immobile); details: 500 μl/l final concentration of the active compounds; test period of 120 minutes
Procedure: Activity Against Schistosoma mansoni Cercariae
Snails (Biomphalaria glabrata) were infected by incubating each of them with 8 miracidia in 10 ml of water overnight. About 6 to 9 weeks after the infection, cercariae were obtained by irradiating the snails, which had been kept in darkness, with light, followed by collection of the swarming cercariae within 2 hours.
Such an amount of cercariae-containing water (1 or 2 ml, see below) was added to the test batches that each batch contained about 100 to 150 cercariae.
9 ml of aquarium water was then added, and the batch was shaken vigorously. After (delayed) addition of 1 ml of cercariae suspension, survival of the cercariae was in each case observed immediately using a stereomagnifier.

[2] = literature / regulatory statement; cited from earlier work
[3] = system: cercariae of Schistosoma mansoni; details: topical, monkeys; literature statement; cited from earlier work
[4] = system: cercariae of Schistosoma mansoni; details: literature statement; cited from earlier work

## C=CCCOC(=O)N(C)CCCO
[1]
  Assessment: 2

## CCCCOC(=O)N1CCCCC1CCO (stereo not shown)
[1]
  Assessment: 3

## O=C(Nc1ccc([N+](=O)[O-])cc1Cl)c1cc(Cl)ccc1O [Niclosamide]
[2]
  toxicity / hazard: may possibly cause inheritable genetic damage
[3]
  action against the penetration of cercariae: acts against the penetration of cercariae

## CC(C)(C)OC(=O)N1CCCCC1CCO (stereo not shown)
[1]
  Assessment: 3

## C=CCOC(=O)N1CCCCC1CCO (stereo not shown)
[1]
  Assessment: 3

## CCN(CC)C(=O)c1cccc(C)c1 [DEET, N,N-Diethyl-m-toluamide]
[4]
  effect on cercariae of Schistosoma mansoni: acts against cercariae

## Oc1c(Cl)cc(Cl)c(Cl)c1Cc1c(O)c(Cl)cc(Cl)c1Cl [hexachlorophene]
[4]
  effect on cercariae of Schistosoma mansoni: lethal effect
[2]
  toxicity / hazard: toxic on contact with the skin and when swallowed

## CN(CCCO)C(=O)OC1CCCCC1
[1]
  Assessment: 1

## CCC(C)OC(=O)N1CCCCC1CCO (stereo not shown)
[1]
  Assessment: 2

## CCCCOC(=O)N(C)CCCO
[1]
  Assessment: 1

## CCC(C)COC(=O)N(C)CCCO (stereo not shown)
[1]
  Assessment: 1
